Data as given in a melting point compilation (Tetko et al.).

SMILES | melting point
Cc1nc(S)nc(O)c1CCO | 263 to 265 °C
NC(=S)C1(NC(=O)c2ccccc2)CCCCC1 | 189 to 191 °C
O/N=C1\CCN2CCCCC12 (stereo not given) | 96 to 98 °C
O=S(=O)(Cl)C=Cc1ccc(F)cc1 | 110 to 112 °C
Fc1ccc(CBr)c2ncccc12 | 94 to 96 °C
c1ccc(-c2cn[nH]c2)cc1 | 229 to 231 °C
O=C(CS)Nc1ccccn1 | 93 to 95 °C
O=C1COc2cc(Br)c(Cl)cc2N1 | 281 to 283 °C
ClCc1nnc(-c2ccccc2Cl)o1 | 91 to 93 °C
NC(=O)c1ncon1 | 156 to 158 °C
CC=C(C)C=CC(=O)O | 89 to 91 °C
CC1(C(=O)O)CCCN(C(=O)c2ccccc2)C1 (stereo not given) | 151 to 153 °C
CNC1CCN(C2CCOCC2)CC1 | 32 to 34 °C
CCOC(=O)c1csc(NC2CC2)n1 | 89 to 91 °C
CCOC(=O)c1cnn(-c2ccc(C(F)(F)F)cn2)c1C | 88 to 90 °C
O=C(Nc1ccc(Br)cn1)C1CCCNC1 (stereo not given) | 169 to 171 °C
ClCc1nnc(-c2cccc(Cl)c2)o1 | 76 to 78 °C
O=c1cc(CO)nc2sccn12 | 193 to 195 °C
CC(C)(C)CCS(N)(=O)=O | 91 to 93 °C
CN(CCO)CC(=O)O | 136 to 138 °C
Sc1ncc(-c2ccccc2)n1-c1ccccc1 | 250 to 252 °C
Cc1cccc(NC(=O)CN2CCNCC2)c1C | 55 to 57 °C
O=C(CCC1CCCO1)NC1CCC(C(=O)O)CC1 (stereo not given) | 199 to 201 °C

SMILES | melting point
O=C(CN1CCNCC1)NCc1ccccc1 | 49 to 51 °C
Cc1cc(C)cc(OCCN(C)C(=O)CCl)c1 | 70 to 72 °C
Cc1ccc(S(=O)(=O)N(C)c2ccc(O)cc2)cc1 | 137 to 139 °C
O=C1CC2(CCCc3ccccc32)C(=O)O1 (stereo not given) | 99 to 101 °C
CCOC(=O)c1ccc(N2CCNCC2)nc1 | 49 to 51 °C
CC(C)(C)OC(=O)N1CC(=O)NC2CNCCC21 (stereo not given) | 144 to 146 °C
COc1ccc(S(=O)(=O)Cl)c(Cl)c1Cl | 92 to 94 °C
O=C(O)C1CCN(C=CC(=O)C(F)(F)F)CC1 | 135 to 137 °C
Clc1ccc2nc(-c3ccccn3)[nH]c2c1 | 133 to 135 °C
CC(C)N1CCC(N2CCNCC2)CC1 | 46 to 48 °C
Clc1cc(OCc2ccccc2)ccn1 | 93 to 95 °C
Nc1cccc(C2SCCCS2)c1 | 140 to 142 °C
COc1cc(C#N)ccn1 | 94 to 96 °C
Nc1nc(-c2ccc3c(c2)OCCO3)cs1 | 180 to 182 °C
O=Cc1cn(-c2ccccc2)nn1 | 97 to 99 °C
Cc1ccc2nc(-c3ccc(N4C(=O)C=CC4=O)cc3)sc2c1 | 259 to 261 °C
CC(=O)N1CCCNc2ccccc21 | 132 to 134 °C
Nc1cc(-c2cc(F)cc(F)c2)no1 | 114 to 116 °C
CCC(C#N)(CC)NC(=O)OC(C)(C)C | 98 to 100 °C
O=c1[nH]c(CCl)nc2scc(-c3cccs3)c12 | 219 to 221 °C
c1ncn(C2CCNCC2)n1 | 97 to 99 °C
CN(C)S(=O)(=O)c1ccc(N)cc1 | 119 to 162 °C
Nc1nc(-c2c(F)cccc2F)cs1 | 179 to 181 °C

SMILES | melting point
NCc1nnc2ccccn12 | 131 to 133 °C
NCC(=O)N1CCN(c2ccc(Cl)cc2)CC1 | 87 to 89 °C
N#CCc1ccc(OCC2CO2)cc1 (stereo not given) | 52 to 54 °C
Cc1cc(Cl)n2nc(C(F)(F)F)nc2n1 | 106 to 108 °C
FC(F)(F)Oc1cccc2c(Cl)ccnc12 | 51 to 53 °C
CS(=O)(=O)c1ccc(N)cn1 | 171 to 173 °C
CC(C)(C)OC(=O)NC(CC#N)c1ccccc1 (stereo not given) | 104 to 106 °C
CC(C)(C)c1ccc(S(N)(=O)=O)cc1 | 136 to 138 °C
CC(Cl)c1nc2scc(-c3cccs3)c2c(=O)[nH]1 (stereo not given) | 241 to 243 °C
Nc1cccc(S(=O)(=O)C2CCCC2)c1 | 117 to 119 °C
COc1ccc(C(=O)C=C(SC)SC)cc1 | 99 to 101 °C
Cc1ccnc(-n2cc(S(N)(=O)=O)cn2)c1 | 156 to 158 °C
O=C(O)c1cn2ccccc2n1 | 242 to 244 °C
NS(=O)(=O)c1ccc(CN=C=S)cc1 | 159 to 161 °C
O=C(O)c1ccccc1SCc1nnnn1-c1ccccc1 | 170 to 174 °C
CC1(C)NC(=O)c2ccccc2O1 | 131 to 133 °C
CC(O)c1ncc(Cl)n1C (stereo not given) | 113 to 115 °C
OCC1CNC(c2ccccc2)=NO1 (stereo not given) | 149 to 151 °C
N#Cc1ccc(CBr)c(F)c1 | 75 to 77 °C
NCCS(=O)(=O)N1CCSCC1 | 59 to 61 °C
Nc1nc(N)nc(C2CCCC2)n1 | 202 to 204 °C
CCOC(=O)CC(O)c1ccc(OCc2ccccc2)cc1 (stereo not given) | 61 to 63 °C
O=C1OCCN1c1ccc(O)cc1 | 177 to 179 °C

SMILES | melting point
Nc1cc(-c2ccccc2Br)no1 | 74 to 76 °C
CC(C)n1cccc1C(=O)O | 106 to 108 °C
Nc1nnc(-c2ccc3ccccc3c2)o1 | 274 to 276 °C
Cc1nn(C)c(C)c1CCC(=O)O | 137 to 139 °C
Nc1ccccc1CSc1ccc(C(F)(F)F)cn1 | 74 to 76 °C
O=C(O)c1cc(S(=O)(=O)N2CCCC2)c[nH]1 | 175 to 177 °C
N#CCc1ccc(OCc2ccccc2N)cc1 | 108 to 110 °C
O=C1CCc2c(F)ccc(F)c21 | 117 to 119 °C
O=S(=O)(Cl)c1ccc(S(=O)(=O)N2CCCCC2)cc1 | 151 to 153 °C
CC(=O)c1ccc(NS(=O)(=O)c2ccc(C)cc2)cc1 | 170 to 172 °C
Nc1ccc2nc(-c3ccccn3)oc2c1 | 178 to 180 °C
CCCNC(=O)CN1CCNCC1 | 31 to 32 °C
O=C(O)C1CCCc2sccc21 (stereo not given) | 79 to 81 °C
O=C(O)CNCC1CC1 | 222 to 224 °C
Fc1ccc(OCC2CNCCO2)cc1F (stereo not given) | 49 to 51 °C
Cc1ccc(-n2c(C)cc(C=O)c2C)cc1 | 102 to 104 °C
O=Cc1cc(Br)c2c(c1)OCCCO2 | 73 to 75 °C
Cc1csc(Sc2c(N)cccc2Cl)n1 | 132 to 134 °C
Cc1ccc(CC(=O)Cc2ccc(C)cc2)cc1 | 53 to 55 °C
NCC(O)COc1ccc2c(c1)CCC(=O)N2 (stereo not given) | 103 to 105 °C
Cc1ccc(SCC(=O)Nc2ccccc2C)c(N)c1 | 115 to 117 °C
OCCCNc1ccncc1 | 98 to 100 °C
NC1CCC2SCCSC12 (stereo not given) | 49 to 51 °C

Continued, values first:

melting point | SMILES
126 to 128 °C | Cc1cccc(C(C)C)c1NC(=O)C(C)Cl (stereo not given)
98 to 102 °C | O=C(CCl)Nc1cc(Cl)ccc1F
309 to 311 °C | Cc1ccc(C(=O)O)cc1NC(=O)Nc1ccccc1
145 to 147 °C | CC(=O)N(c1ccc(Cl)cc1)c1nc(CCl)cs1
251 to 253 °C | O=C(O)c1c[nH]nc1-c1cccc(Cl)c1
194 to 196 °C | O=C(O)CSc1nnc(C2CC2)n1Cc1ccccc1
97 to 99 °C | Cc1ccnc(Cl)c1O
157 to 159 °C | O=C(O)Cc1ccc([N+](=O)[O-])cc1Cl
213 to 215 °C | Cc1c(C(=O)O)cc(Br)cc1S(N)(=O)=O
97 to 99 °C | O=C(O)CCc1nc2ccccc2s1
210 to 212 °C | O=c1[nH]c2ccc(S(=O)(=O)Cl)cc2[nH]1
144 to 146 °C | O=C(O)CCc1ncc(-c2ccc(F)cc2)o1
183 to 185 °C | O=C(O)CCC1NC(=O)N(c2ccc(F)cc2F)C1=O (stereo not given)
217 to 219 °C | Cc1ccc(S(=O)(=O)NC2CCCCC2)cc1C(=O)O
117 to 119 °C | Cc1ccc(S(=O)(=O)N(C)C(C)C)cc1N
63 to 65 °C | N#Cc1c(F)cccc1S(=O)(=O)Cl
198 to 200 °C | Cc1ccc(OCc2nc(C(=O)O)cs2)cc1
112 to 114 °C | COc1ccc(CCCCC(=O)O)cc1
109 to 111 °C | Cc1ccc2cc(CCl)c(Cl)nc2c1C
86 to 88 °C | CCC(C)(C)NS(=O)(=O)c1ccc(Cl)nc1
74 to 76 °C | O=C(O)CCSCc1ccccn1
128 to 129 °C | CCOc1cc(Br)c(CC(=O)O)cc1OCC
62 to 64 °C | COC(=O)c1ccc(F)cc1N
119 to 121 °C | CC(Oc1ccc(Cl)cc1[N+](=O)[O-])C(=O)O (stereo not given)
99 to 101 °C | Clc1ccnc2cc(Br)ccc12
147 to 149 °C | O=C(O)c1cccc(CSc2cc(Cl)cc(Cl)c2)c1
178 to 180 °C | CN(C)C(=O)c1ccc(C(=O)O)cc1

melting point | SMILES
299 to 301 °C | NS(=O)(=O)c1cc(C(=O)O)cc2c1CCC2
183 to 185 °C | CCOC(=O)c1c(C)n(CC)c2ccc(O)cc12
163 to 165 °C | O=C(O)c1ccc(F)c(S)c1
67 to 69 °C | COC(=O)c1ccc(F)c(N)c1
316 to 318 °C | CCn1c(=O)[nH]c(=O)c2cc(C(=O)O)cnc21
233 to 235 °C | CC(=O)N1CCc2cc(NC(=O)CCl)ccc21
69 to 71 °C | COC(=O)c1cc([N+](=O)[O-])cc([N+](=O)[O-])c1OC
198 to 200 °C | COc1cc2ncn(CCCC(=O)O)c(=O)c2cc1OC
123 to 125 °C | Cn1cc(CCC(=O)O)c2ccccc21
112 to 114 °C | O=C(O)C1CCCN(C(=O)Cc2ccccc2)C1 (stereo not given)
129 to 131 °C | O=C(O)c1cccn(Cc2ccccc2)c1=O
76 to 78 °C | OCC#Cc1ccc(Cl)cc1
157 to 159 °C | NC(=O)Cc1ccc(N)cc1
88 to 92 °C | CCOc1ccc(C(=O)CC(=O)C(=O)OC)cc1
195 to 197 °C | O=C(O)CCn1nnc2ccccc2c1=O
175 to 177 °C | CCN(c1ccccc1)S(=O)(=O)c1cccc(C(=O)O)c1
150 to 152 °C | Cc1cnc(C(=O)O)c(C)c1
174 to 176 °C | CCc1ccc(C(=O)O)cc1S(C)(=O)=O
128 to 130 °C | CCS(=O)c1ccccc1C(=O)O (stereo not given)
80 to 84 °C | Cc1ccc(C)c(C(=O)CCC(=O)O)c1
192 to 194 °C | O=[N+]([O-])c1ccc2nc(S)oc2c1
84 to 86 °C | Cc1cc(Br)c(O)c([N+](=O)[O-])c1
247 to 249 °C | O=c1[nH][nH]c2cccc(Cl)c12
182 to 184 °C | O=C(O)C1CCCN1S(=O)(=O)c1cccc([N+](=O)[O-])c1 (stereo not given)
155 to 157 °C | COc1cc(C=O)ccc1OCC(N)=O
249 to 251 °C | NC(=O)c1ccc(C(=O)O)nc1
